Patent publication US11787835B2, “C19 scaffolds and steroids and methods of use and manufacture thereof” (Trustees of Dartmouth College, priority 2018, dated 2023)

Legend:
[1] = tested on: DU-145 prostate cancer cells (endogenous ERβ); assay: Alkaline phosphatase activity in DU-145 prostate cancer cells; assay type: cell-based, human; conditions: DU-145 cells, 24 hours, 5 μM, FIG. 2
Method: FIG. 2 is a bar graph showing alkaline phosphatase activity in human DU-145 prostate cancer cells (17β-estradiol, Compound 100, and Compound 101 were evaluated at 5 μM).
The DU-145 prostate cancer cell line only expresses ERβ and can be used as a model to examine the activation of ERβ in the absence of any potential confounding signal driven by ERα. Alkaline phosphatase (ALP) expression is induced in an ER-dependent manner and has been used to characterize the activity of synthetic ER agonists and antagonists.
In order to examine the ability of Compound 100 and Compound 101 to activate ERβ in the context of a cell line expressing endogenous ERβ, DU-145 cells were treated for 24 hours with either 17β-estradiol, Compound 100, or Compound 101 and ALP activity derived from the cells was examined.

established tumors = assay: In vivo growth of established tumors; conditions: initial studies
Excerpt: In comparison to 17β-estradiol, Compound 100 and Compound 101 have a unique profile for selective agonism of ERβ (FIG. 1).

U251 and U87 cells [2] = assay: Incucyte live cell imaging of morphological changes; assay type: cell-based, human; conditions: over five days, FIG. 3D
Method: FIG. 3D depicts phase-contrast images using Incucyte for live cell tracking of U251 and U87 cells in response to treatment with Compound 100, Compound 101, TMZ, and vehicle control DMSO. Live cells were tracked and imaged for 96 hours (data not shown). Scale bar=300 μm. All data in FIG. 3A-3D are representative of four independent experiments and four replicates of each treatment condition were analyzed per experiment.
(§1) In order to elucidate the mechanism of this cell death, glioblastoma cells treated for 24 hours with Compound 100, Compound 101, TMZ, or DMSO control were analyzed for early and late apoptosis markers (Annexin V and 7-Aminoactinomycin D) by FACS analyses. […] Additionally, over a period of five days, morphological changes in U251 and U87 cells treated with Compound 100 and Compound 101 were tracked using the Incucyte live cell imaging system.

U251 and U87 cells [3] = assay: Growth inhibition and viable cell counts of glioblastoma cell lines; assay type: cell-based, human; conditions: for inhibition of glioma cell growth (IC50), fold lower concentration compared to TMZ: after 24 hours, FIG. 3A
Method: FIG. 3A-3B are line graphs depicting (A) dose dependent growth inhibition of U251 and U87 cells treated with Compound 100, Compound 101, TMZ, and vehicle control DMSO (n=4) and (B) viable cell counts of U251 and U87 cells treated with Compound 100, Compound 101, TMZ, and vehicle control DMSO determined every 24 hours for 96 hours (n=4)
(§2) To determine the biological effect of Compound 100 and Compound 101, human glioblastoma-derived cell lines U251 and U87 were treated with varying concentrations of Compound 100, Compound 101, temazolomide (TMZ; a standard of care chemotherapeutic agent), or vehicle-toxicity control, dimethylsulfoxide (DMSO) used at final volumes that were identical to those used to attain all concentrations tested of Compound 100 and Compound 101.

U251 and U87 cells [4] = assay: Annexin V/7-AAD apoptosis FACS analysis; assay type: cell-based, human; conditions: 24 hours, Annexin V and 7-AAD, FIG. 3C
Method: FIG. 3C is a flow cytometric analysis of U251 and U87 co-stained with Annexin V-FITC/7-AAD after treatment with Compound 100, Compound 101, TMZ, and vehicle control DMSO (n=4).
as §1

glioblastoma cell lines = assay: MTT cell viability assay in glioblastoma cell lines; assay type: cell-based, human
Method: as §2

ERβ = ERβ (Homo sapiens, UniProt Q92731); assay: ERβ agonist assay (functional activity at estrogen receptors); assay type: cell-based
Method: FIG. 1 is a set of line graphs showing the results of ERβ and ERα agonist assays for Compounds 100 and 101.
Compounds 100 and 101 were evaluated for their functional activity at estrogen receptors (both ERα and ERβ). 17β-estradiol was used as a control, as it is appreciated to be a potent agonist of both ERα and ERβ.

[5] = tested on: primary glioma tumor cells from patients; assay: Growth of primary glioma tumor cells from patients; assay type: cell-based, human
Excerpt: The present disclosure also relates to the use of such compounds as biologically active (e.g., therapeutic) components in, for example, pharmaceutical compositions and/or directly as human and/or animal therapeutics and medicines. In certain embodiments, the compounds are ERβ selective agonists and/or may be used to treat or prevent conditions, disorders, or diseases such as cancer (e.g., breast cancer, prostate cancer, ovarian cancer, acute myeloid leukemia, and glioma, among others) or neurodegeneration. Currently there is no widely applicable cure for primary brain tumors.

Sequence of ERβ (Q92731 whole entry, species assumed): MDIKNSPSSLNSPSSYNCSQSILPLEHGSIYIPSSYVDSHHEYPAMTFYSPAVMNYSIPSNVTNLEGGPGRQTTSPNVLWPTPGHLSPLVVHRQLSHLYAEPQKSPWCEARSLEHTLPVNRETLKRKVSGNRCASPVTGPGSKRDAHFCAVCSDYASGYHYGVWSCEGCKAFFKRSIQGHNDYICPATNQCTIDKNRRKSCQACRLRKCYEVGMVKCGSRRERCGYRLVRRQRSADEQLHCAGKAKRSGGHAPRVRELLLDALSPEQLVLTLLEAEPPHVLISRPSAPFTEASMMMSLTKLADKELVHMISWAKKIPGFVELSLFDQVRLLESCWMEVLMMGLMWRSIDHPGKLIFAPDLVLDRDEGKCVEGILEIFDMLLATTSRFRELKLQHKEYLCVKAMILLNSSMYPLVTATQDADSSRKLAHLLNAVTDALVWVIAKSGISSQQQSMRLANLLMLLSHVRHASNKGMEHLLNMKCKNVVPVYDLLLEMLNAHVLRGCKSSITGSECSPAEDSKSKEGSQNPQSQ

C[C@]12CC[C@@H]3c4ccc(O)cc4CC[C@H]3[C@@H]1CC[C@@H]2O [17β-estradiol, reference compound]
induction of ALP activity [1]: effective in inducing ALP activity

C[C@]12CC[C@@]3(C)C(=C1C[C@@H](O)C2)CCc1cc(O)ccc13 [Compound 100, (9S,13R,16S)-9,13-dimethyl-7,9,11,12,13,15,16,17-octahydro-6H-cyclopenta[α]phenanthrene-3,16-diol]
growth of established tumors in vivo (established tumors): reduces the growth of established tumors | morphological changes (adherence, cellular integrity) (U251 and U87 cells [2]): Increased loss of adherence and cellular integrity | inhibition of glioma cell growth (IC50), fold lower concentration compared to TMZ (U251 and U87 cells [3]): 50 fold | viability and proliferation of glioblastoma lines (U251 and U87 cells [3]; assessed every 24 hours for 5 days, compared to TMZ or DMSO, FIG. 3B): reduced viability and the resulting proliferation of glioblastoma lines in a dose dependent manner | induction of apoptosis, fold higher than TMZ or DMSO controls (U251 and U87 cells [4]): 7 fold | growth of glioblastoma cell lines (MTT) (glioblastoma cell lines): significantly reduced the growth of glioblastoma cell lines in a dose-dependent manner | induction of ALP activity [1]: effective at inducing ALP to levels comparable to 17β-estradiol | type of ERβ agonism (ERβ): full agonist | growth of primary glioma tumor cells from patients [5]: inhibit growth

C[C@@]12CC[C@]3(C)C(=C1C[C@H](O)C2)CCc1cc(O)ccc13 [Compound 101, (9R,13S,16R)-9,13-dimethyl-7,9,11,12,13,15,16,17-octahydro-6H-cyclopenta[a]phenanthrene-3,16-diol]
inhibition of glioma cell growth (IC50), fold lower concentration compared to TMZ (U251 and U87 cells [3]): 50 fold | induction of apoptosis, fold higher than TMZ or DMSO controls (U251 and U87 cells [4]): 7 fold
